# Measurements taken from ChEMBL document CHEMBL1135798, “Structure-activity relationships of the antimalarial agent artemisinin. 6. The development of predictive in vitro potency models using CoMFA and HQSAR methodologies” (2002).
# Tested on: Plasmodium falciparum
# Test: Antimalarial activity against chloroquine-resistant, mefloquine-sensitive Plasmodium falciparum W2
# Format: functional
row,SMILES,Log RA
1,C/C=C/C[C@@H]1C(=O)O[C@@H]2O[C@@]3(C)CC[C@H]4[C@H](C)CC[C@@H]1[C@@]24OO3,-0.6
2,C[C@@H]1CC[C@@H]2[C@]34OO[C@](C)(CC[C@@H]13)O[C@H]4OC(OCC(F)(F)F)[C@@]2(C)O (stereo not given in full),0.29
3,CCCCC1O[C@@H]2O[C@@]3(C)CC[C@H]4[C@H](C)CC[C@@H]([C@H]1C)[C@@]24OO3 (stereo not given in full),0.06
4,CC(C)C[C@@]12CC[C@H]3[C@H](C)CC[C@H]4CC(=O)O[C@H](O1)[C@]43OO2,-0.35
5,CCOP(=O)(OCC)OCC[C@@H]1CCC[C@@H]2CC[C@@]3(C)OO[C@]21[C@@H](OC)O3,0.37
6,CCC[C@@]12CC[C@H]3[C@H](C)CC[C@H]4CCO[C@H](O1)[C@]43OO2,0.84
7,CCCC[C@H]1C(O)O[C@@H]2O[C@@]3(C)CC[C@H]4[C@H](C)CC[C@@H]1[C@@]24OO3 (stereo not given in full),0.96
8,CO[C@H]1O[C@]2(C)OO[C@]13[C@H](CCO)CCC[C@@H]3C[C@H]2C,-1.8
9,CCOC(=O)C[C@H](O[C@H]1O[C@@H]2O[C@@]3(C)CC[C@H]4[C@H](C)CC[C@@H]([C@H]1C)[C@@]24OO3)c1ccc([N+](=O)[O-])cc1,1.57
10,CO[C@@H]1O[C@@]2(C)CC[C@H]3CC(C)(C)CC[C@]31OO2,-0.47
11,CC1O[C@@H]2O[C@@]3(C)CC[C@H]4[C@H](C)CC[C@@H]1[C@@]24OO3 (stereo not given in full),-0.64
12,CCO[C@H]1O[C@@H]2O[C@@]3(C)CC[C@H]4C(C)C(F)(F)C[C@@H]([C@H]1C)[C@@]24OO3 (stereo not given in full),0.19
13,C[C@@H]1CCC2[C@@H](C)C(=O)OC3OC(C)(C)OO[C@@]32C1 (stereo not given in full),-0.15
14,CCOC1O[C@@H]2O[C@@]3(C)CC[C@H]4[C@H](C)CC[C@@H]([C@H]1C)[C@@]24OO3 (stereo not given in full),0.34
15,C=CCOCC[C@@H]1CCC[C@@H]2CC[C@@]3(C)OO[C@]21[C@@H](OC)O3,0.4
16,C[C@@H]1CC[C@H]2[C@@H](CCCCc3ccccc3)C(=O)O[C@@H]3O[C@@]4(C)CC[C@@H]1[C@]32OO4,0.63
17,C[C@@]12C[C@H]3CCC[C@H]4CC(=O)O[C@H](O1)[C@@]34OO2,-1.79
18,CC(=O)Oc1ccc([C@@H](C)O[C@H]2O[C@@H]3O[C@@]4(C)CC[C@H]5[C@H](C)CC[C@@H]([C@H]2C)[C@@]35OO4)cc1,0.68
19,C[C@@H]1CC[C@@H]2[C@]34OO[C@](C)(CC[C@@H]13)O[C@H]4OC(=O)[C@@]2(Br)CBr,-1.64
20,CCO[C@H]1O[C@@H]2O[C@@]3(C)CC(O)[C@H]4C(C)CC[C@@H]([C@H]1C)[C@@]24OO3 (stereo not given in full),-1.08

row,SMILES,Log RA
1,C[C@@H]1CC[C@H]2[C@@H](C)C(=O)N(Cc3ccccn3)[C@@H]3O[C@@]4(C)CC[C@@H]1[C@@]23OO4,1.46
2,CO[C@H]1O[C@@]2(C)CC[C@H]3CCC[C@@H](CCOCc4ccccn4)[C@]31OO2,0.17
3,CO[C@H]1OC2(C)CC[C@H]3CCC[C@@H](CCOCc4ccc(F)cc4)C31OO2 (stereo not given in full),0.38
4,CCCC[C@@]12CC[C@H]3[C@H](C)CC[C@H]4CC(=O)O[C@H](O1)[C@]43OO2,-0.74
5,CO[C@H]1O[C@]2(C)OO[C@]13[C@H](CCO)CCC[C@@H]3CC2(C)C,-1.8
6,C[C@@H]1CC[C@@H]2[C@]34OO[C@](C)(CC[C@@H]13)O[C@H]4OC(O)[C@@]21CO1 (stereo not given in full),-0.62
7,CCCC[C@H]1C(=O)OC2OC(C)(C)OO[C@@]23CCCCC13 (stereo not given in full),-1.13
8,CCO[C@H]1O[C@@H]2O[C@@]3(C)CC[C@H]4C(C(F)F)CC[C@@H]([C@H]1C)[C@@]24OO3 (stereo not given in full),0.41
9,CCOC1O[C@@H]2O[C@@]3(C)CC[C@H]4[C@H](C)CC[C@@H]([C@H]1CC)[C@@]24OO3 (stereo not given in full),0.5
10,C[C@@H]1CC[C@H]2CC(=O)O[C@@H]3O[C@@]4(CCCc5ccc(Cl)cc5)CC[C@@H]1[C@@]23OO4,0.1
11,C[C@@H]1CC[C@@H]2[C@]34OO[C@](C)(CC[C@@H]13)O[C@H]4OC(Nc1nccs1)[C@@]2(C)Br (stereo not given in full),0.66
12,CCC1(CC)OO[C@]23CCCCC2[C@@H](C)C(=O)OC3O1 (stereo not given in full),-0.6
13,CC1CCO[C@@H]2O[C@@]3(C)CC[C@H]4[C@H](C)CC[C@@H]1[C@@]24OO3 (stereo not given in full),-1.2
14,C[C@@H]1CC[C@H]2CCO[C@@H]3O[C@@]4(C)CC[C@@H]1[C@@]23OO4,0.28
15,CCN(CC)C(=O)c1ccc(C(=O)OCC[C@@H]2CCC[C@@H]3CC[C@@]4(C)OO[C@]32[C@@H](OC)O4)cc1,0.23
16,C[C@@H]1CC[C@@H]2[C@]34OO[C@](C)(CC[C@@H]13)O[C@H]4OC(Nc1ncccn1)[C@@]2(C)Br (stereo not given in full),-0.77
17,C[C@@H]1CC[C@H]2[C@@H](CCCc3ccccc3)C(=O)O[C@@H]3O[C@@]4(C)CC[C@@H]1[C@]32O4,-4
18,CC(C)CN1C(=O)[C@H](C)[C@@H]2CC[C@@H](C)[C@@H]3CC[C@]4(C)O[C@@H]1[C@@]32O4,-4
19,C[C@@]12CC[C@H]3CCC[C@H]4CC(=O)O[C@H](O1)[C@@]34OO2,-0.36
20,C[C@@H]1CC[C@@H]2[C@]34OO[C@](C)(CC[C@@H]13)O[C@H]4OC(Nc1cccc(F)c1)[C@@]2(C)Br (stereo not given in full),0.79
